Read-outs that look alike come from different tables or passages of the source.
Settings: rcm bond, Zhan catalyst 1B

`CCOC(=O)[C@@]12C[C@H]1/C=C\CCCCC[C@@H]1NC(=O)OCC(C)(C)CC=Cc3cc4c(nccc4cc3OC)O[C@@H]3C[C@@H](C(=O)N2)N(C3)C1=O` gave a ring closure, yield of all isomers (from C=CCC(C)(C)COC(=O)N[C@H]1CCCCC/C=C\[C@@H]2C[C@@]2(C(=O)OCC)NC(=O)[C@@H]2C[C@@H](Oc3nccc4cc(OC)c(C=C)cc34)CN2C1=O, DCM, 10.2 mM, 40.0 °C, 5.0 h) of 80.8%.
With `CCOC(=O)[C@@]12C[C@H]1C=CCCCCC[C@@H]1NC(=O)OCC(C)(C)CC=Cc3cc4c(cc(-c5ccccc5)nc4cc3OC)O[C@@H]3C[C@@H](C(=O)N2)N(C3)C1=O` the ring closure, yield of all isomers (from C=CCCCCC[C@H](NC(=O)OCC(C)(C)CC=C)C(=O)N1C[C@H](Oc2cc(-c3ccccc3)nc3cc(OC)c(C=C)cc23)C[C@H]1C(=O)N[C@]1(C(=O)OCC)C[C@H]1C=C, DCM, 5.0 mM, 40.0 °C, 7.0 h) was 49%.
Work on `CCOC(=O)[C@@]12C[C@H]1/C=C\CCCCC[C@H](NC(=O)OC(C)(C)C)C(=O)N1C[C@H](Oc3nccc4cc(OC)c(Br)cc34)C[C@H]1C(=O)N2` yielded a ring closure, yield of all isomers (from C=CCCCCC[C@H](NC(=O)OC(C)(C)C)C(=O)N1C[C@H](Oc2nccc3cc(OC)c(Br)cc23)C[C@H]1C(=O)N[C@]1(C(=O)OCC)C[C@H]1C=C, DCM, 10.15 mM, 40.0 °C, 2.0 h) of 70.1%.
Compound `COc1cc2nc(-c3ccccc3)cc3c2cc1C=CCCCOC(=O)N[C@H]1CCCCCC=C[C@@H]2C[C@@]2(C(=O)NS(=O)(=O)C2CC2)NC(=O)[C@@H]2C[C@H](CN2C1=O)O3` has a ring closure, yield of all isomers (from C=CCCCCC[C@H](NC(=O)OCCCC=C)C(=O)N1C[C@H](Oc2cc(-c3ccccc3)nc3cc(OC)c(C=C)cc23)C[C@H]1C(=O)N[C@]1(C(=O)NS(=O)(=O)C2CC2)C[C@H]1C=C, 1,2-dichloroethane, 4.73 mM, 90.0 °C, 3.0 h) of 6.1%.
